Like-named read-outs stand apart in the source and are kept apart here. Where a SMILES comes first, the peptide text is derived from it. The star is where a group is joined. Myristoyl = CCCCCCCCCCCCCC(=O)*
What was measured:
[1] = system: RSV infection of NHBE cells; test: RSV infection of NHBE cells pre-treated with PKC inhibitors, single cell immunofluorescence assay; assay type: cell-based, respiratory syncytial virus (RSV); conditions: for number of infected cells, dose dependence: inhibitor 30 min before infection; for IC50: 16 h, read-out: concentration at which 50% inhibition of infected cells was reached
[2] = system: RSV infection of NHBE cells; test: RSV infection of NHBE cells treated with signaling inhibitors, FITC anti-RSV mab staining and cell counting; assay type: cell-based, respiratory syncytial virus (RSV); conditions: inhibitor 2 h before and 48 h after RSV, AG 490 50 μM, PD98059 80 μM, RO318220 3 μM, Wortmannin 300 nM
Procedure: NHBE cells were treated with different inhibitors for 2 hours at concentration as: AG 490 (50 μM), PD98059 (80 μM), RO318220 (3 μM), and Wortmannin (300 nM). DMSO was used as a mock control. The inhibitors were removed and the cells were infected with RSV for 2 hours. After the RSV was removed, the growth medium with the same concentration of inhibitors was added to the cells for 48 hours. The cells were rinsed with PBS prior to staining with FITC-labeled Anti-RSV monoclonal antibody (mab) (CHEMICON, Temecula, Calif.). The total cells and RSV positive cells were counted randomly from 15 to 20 different spots.
To determine if different signaling molecules related to the ERK pathway are required for a successful RSV infection, primary NHBE cells were exposed to various inhibitors previously to being infected with a sucrose-purified RSV preparation. […] Also, other PKC isoforms are activated later during the infection, which could potentially play a role in the late phase of ERK activation (Monick, M. et al., J Immunol, 166(4):2681-2687, 2001).

Compound | number of infected cells, dose dependence ([1]; NHBE cells, RSV 1 MOI) | number of RSV infected cells [2] | other results
COc1ccc2c(c[n+](C)c3c4cc5c(cc4ccc23)OCO5)c1OC [Chelerythrine] | reduced in a dose-dependent manner |  | IC50 ([1]; human respiratory syncytial virus, NHBE): 7.5 µM
N#C/C(=C/c1ccc(O)c(O)c1)C(=O)NCc1ccccc1 [AG490] |  | significant reduction | number of RSV infected cells ([2]; listed as AG 490): substantially decrease
Calphostin C | reduced in a dose-dependent manner |  | IC50 ([1]; NHBE cells, RSV 1 MOI): 0.375 µM
COc1cccc(-c2cc(=O)c3ccccc3o2)c1N [PD98059] |  | significant reduction | 
CCCCCCCCCCCCCC(=O)N[C@@H](Cc1ccccc1)C(=O)N[C@@H](C)C(=O)N[C@@H](CCCNC(=N)N)C(=O)N[C@@H](CCCCN)C(=O)NCC(=O)N[C@@H](C)C(=O)N[C@@H](CC(C)C)C(=O)N[C@@H](CCCNC(=N)N)C(=O)N[C@@H](CCC(N)=O)C(N)=O [N-Myr-Phe-Ala-Arg-Lys-Gly-Ala-Leu-Arg-Gln] (Myristoyl-FARKGALRQ-NH2; N-terminus and C-terminus assumed) |  |  | solubility in water: soluble in water
Cn1cc(C2=C(c3cn(CCCSC(=N)N)c4ccccc34)C(=O)NC2=O)c2ccccc21 [Ro318220] |  | significant reduction | number of RSV infected cells ([2]; listed as RO318220): substantially decrease
